Calls of active or inactive are those of the source. The rule behind the calls is not given here.
Tested on: CCRIS mutagenicity, Ames/micronucleus/aberration tests
Experiment: CCRIS mutagenicity studies
[1] = Test System: AMES SALMONELLA TYPHIMURIUM, Strain/Indicator: TA98, Metabolic Activation: NONE, Method: PREINCUBATION
[2] = Test System: AMES SALMONELLA TYPHIMURIUM, Strain/Indicator: TA100, Metabolic Activation: NONE, Method: PREINCUBATION
[3] = Test System: AMES SALMONELLA TYPHIMURIUM, Strain/Indicator: TA1535, Metabolic Activation: NONE, Method: PREINCUBATION
[4] = Test System: AMES SALMONELLA TYPHIMURIUM, Strain/Indicator: TA1537, Metabolic Activation: NONE, Method: PREINCUBATION
[5] = Test System: AMES SALMONELLA TYPHIMURIUM, Strain/Indicator: TA1538, Metabolic Activation: NONE, Method: PREINCUBATION
[6] = Test System: AMES SALMONELLA TYPHIMURIUM, Strain/Indicator: TA97, Metabolic Activation: NONE, Method: PREINCUBATION

Structure (SMILES): [Cl][Fe]([Cl])[Cl]
- mutagenic call (Test System: AMES SALMONELLA TYPHIMURIUM, Strain/Indicator: TA98, Metabolic Activation: HAMSTER, LIVER, S-9, AROCLOR 1254, Method: STANDARD PLATE): inactive; negative
- mutagenic call [1]: inactive; negative
- mutagenic call (Test System: AMES SALMONELLA TYPHIMURIUM, Strain/Indicator: TA98, Metabolic Activation: NONE, Method: STANDARD PLATE): inactive; negative
- mutagenic call (Test System: AMES SALMONELLA TYPHIMURIUM, Strain/Indicator: TA98, Metabolic Activation: RAT, LIVER, S-9, AROCLOR 1254, Method: STANDARD PLATE): inactive; negative
- mutagenic call (Test System: AMES SALMONELLA TYPHIMURIUM, Strain/Indicator: TA98, Metabolic Activation: RAT, LIVER, S-9, KC 500, Method: PREINCUBATION): inactive; negative
- mutagenic call (Test System: AMES SALMONELLA TYPHIMURIUM, Strain/Indicator: TA100, Metabolic Activation: HAMSTER, LIVER, S-9, AROCLOR 1254, Method: STANDARD PLATE): inactive; negative
- mutagenic call [2]: inactive; negative
- mutagenic call (Test System: AMES SALMONELLA TYPHIMURIUM, Strain/Indicator: TA100, Metabolic Activation: NONE, Method: STANDARD PLATE): inactive; negative
- mutagenic call (Test System: AMES SALMONELLA TYPHIMURIUM, Strain/Indicator: TA100, Metabolic Activation: RAT, LIVER, S-9, AROCLOR 1254, Method: STANDARD PLATE): inactive; negative
- mutagenic call (Test System: AMES SALMONELLA TYPHIMURIUM, Strain/Indicator: TA100, Metabolic Activation: RAT, LIVER, S-9, KC 500, Method: PREINCUBATION): inactive; negative
- mutagenic call (Test System: AMES SALMONELLA TYPHIMURIUM, Strain/Indicator: TA1535, Metabolic Activation: HAMSTER, LIVER, S-9, AROCLOR 1254, Method: STANDARD PLATE): inactive; negative
- mutagenic call [3]: inactive; negative
- mutagenic call (Test System: AMES SALMONELLA TYPHIMURIUM, Strain/Indicator: TA1535, Metabolic Activation: NONE, Method: STANDARD PLATE): inactive; negative
- mutagenic call (Test System: AMES SALMONELLA TYPHIMURIUM, Strain/Indicator: TA1535, Metabolic Activation: RAT, LIVER, S-9, AROCLOR 1254, Method: STANDARD PLATE): inactive; negative
- mutagenic call (Test System: AMES SALMONELLA TYPHIMURIUM, Strain/Indicator: TA1535, Metabolic Activation: RAT, LIVER, S-9, KC 500, Method: PREINCUBATION): inactive; negative
- mutagenic call (Test System: AMES SALMONELLA TYPHIMURIUM, Strain/Indicator: TA1537, Metabolic Activation: HAMSTER, LIVER, S-9, AROCLOR 1254, Method: STANDARD PLATE): inactive; negative
- mutagenic call [4]: inactive; negative
- mutagenic call (Test System: AMES SALMONELLA TYPHIMURIUM, Strain/Indicator: TA1537, Metabolic Activation: NONE, Method: STANDARD PLATE): inactive; negative
- mutagenic call (Test System: AMES SALMONELLA TYPHIMURIUM, Strain/Indicator: TA1537, Metabolic Activation: RAT, LIVER, S-9, AROCLOR 1254, Method: STANDARD PLATE): inactive; negative
- mutagenic call (Test System: AMES SALMONELLA TYPHIMURIUM, Strain/Indicator: TA1537, Metabolic Activation: RAT, LIVER, S-9, KC 500, Method: PREINCUBATION): inactive; negative
- mutagenic call (Test System: AMES SALMONELLA TYPHIMURIUM, Strain/Indicator: TA1538, Metabolic Activation: HAMSTER, LIVER, S-9, AROCLOR 1254, Method: STANDARD PLATE): inactive; negative
- mutagenic call [5]: inactive; negative
- mutagenic call (Test System: AMES SALMONELLA TYPHIMURIUM, Strain/Indicator: TA1538, Metabolic Activation: NONE, Method: STANDARD PLATE): inactive; negative
- mutagenic call (Test System: AMES SALMONELLA TYPHIMURIUM, Strain/Indicator: TA1538, Metabolic Activation: RAT, LIVER, S-9, AROCLOR 1254, Method: STANDARD PLATE): inactive; negative
- mutagenic call (Test System: AMES SALMONELLA TYPHIMURIUM, Strain/Indicator: TA1538, Metabolic Activation: RAT, LIVER, S-9, KC 500, Method: PREINCUBATION): inactive; negative
- mutagenic call (Test System: E. COLI, Strain/Indicator: WP2 UVRA, Metabolic Activation: NONE, Method: PREINCUBATION): inactive; negative
- mutagenic call (Test System: E. COLI, Strain/Indicator: WP2 UVRA, Metabolic Activation: RAT, LIVER, S-9, KC 500, Method: PREINCUBATION): inactive; negative
- mutagenic call (Test System: MOUSE LYMPHOMA, Strain/Indicator: L5178Y (TK+/TK-), Metabolic Activation: NONE, Method: SUSPENSION/PLATE): inactive; negative
- mutagenic call (Test System: MOUSE LYMPHOMA, Strain/Indicator: L5178Y (TK+/TK-), Metabolic Activation: RAT, LIVER, S-9, AROCLOR 1254, Method: SUSPENSION/PLATE): active; positive

Structure (SMILES): CCOC(C)(C)C
- mutagenic call (Test System: AMES SALMONELLA TYPHIMURIUM, Strain/Indicator: TA97, Metabolic Activation: HAMSTER, LIVER, S-9, AROCLOR 1254 (10 OR 30%), Method: PREINCUBATION): inactive; negative
- mutagenic call [6]: inactive; negative
- mutagenic call (Test System: AMES SALMONELLA TYPHIMURIUM, Strain/Indicator: TA97, Metabolic Activation: RAT, LIVER, S-9, AROCLOR 1254 (10 OR 30%), Method: PREINCUBATION): inactive; negative
- mutagenic call (Test System: AMES SALMONELLA TYPHIMURIUM, Strain/Indicator: TA98, Metabolic Activation: HAMSTER, LIVER, S-9, AROCLOR 1254 (10 OR 30%), Method: PREINCUBATION): inactive; negative
- mutagenic call [1]: inactive; negative
- mutagenic call (Test System: AMES SALMONELLA TYPHIMURIUM, Strain/Indicator: TA98, Metabolic Activation: RAT, LIVER, S-9, AROCLOR 1254 (10 OR 30%), Method: PREINCUBATION): inactive; negative
- mutagenic call (Test System: AMES SALMONELLA TYPHIMURIUM, Strain/Indicator: TA100, Metabolic Activation: HAMSTER, LIVER, S-9, AROCLOR 1254 (10 OR 30%), Method: PREINCUBATION): inactive; negative
- mutagenic call [2]: inactive; negative
- mutagenic call (Test System: AMES SALMONELLA TYPHIMURIUM, Strain/Indicator: TA100, Metabolic Activation: RAT, LIVER, S-9, AROCLOR 1254 (10 OR 30%), Method: PREINCUBATION): inactive; negative
- mutagenic call (Test System: AMES SALMONELLA TYPHIMURIUM, Strain/Indicator: TA1535, Metabolic Activation: HAMSTER, LIVER, S-9, AROCLOR 1254 (10 OR 30%), Method: PREINCUBATION): inactive; negative
- mutagenic call [3]: inactive; negative
- mutagenic call (Test System: AMES SALMONELLA TYPHIMURIUM, Strain/Indicator: TA1535, Metabolic Activation: RAT, LIVER, S-9, AROCLOR 1254 (10 OR 30%), Method: PREINCUBATION): inactive; negative

Structure (SMILES): O=c1[nH]c(=O)n([C@H]2C[C@H](O)[C@@H](CO)O2)cc1CCCCl
- mutagenic call [6]: inactive; negative
- mutagenic call (Test System: AMES SALMONELLA TYPHIMURIUM, Strain/Indicator: TA97, Metabolic Activation: RAT, LIVER, S-9, AROCLOR 1254, Method: PREINCUBATION): inactive; negative
- mutagenic call [1]: inactive; negative
- mutagenic call (Test System: AMES SALMONELLA TYPHIMURIUM, Strain/Indicator: TA98, Metabolic Activation: RAT, LIVER, S-9, AROCLOR 1254, Method: PREINCUBATION): inactive; negative
- mutagenic call [2]: inactive; negative
- mutagenic call (Test System: AMES SALMONELLA TYPHIMURIUM, Strain/Indicator: TA100, Metabolic Activation: RAT, LIVER, S-9, AROCLOR 1254, Method: PREINCUBATION): inactive; negative
- mutagenic call (Test System: AMES SALMONELLA TYPHIMURIUM, Strain/Indicator: TA102, Metabolic Activation: NONE, Method: PREINCUBATION): inactive; negative
- mutagenic call (Test System: AMES SALMONELLA TYPHIMURIUM, Strain/Indicator: TA102, Metabolic Activation: RAT, LIVER, S-9, AROCLOR 1254, Method: PREINCUBATION): inactive; negative
- mutagenic call (Test System: AMES SALMONELLA TYPHIMURIUM, Strain/Indicator: TA104, Metabolic Activation: NONE, Method: PREINCUBATION): inactive; negative
- mutagenic call (Test System: AMES SALMONELLA TYPHIMURIUM, Strain/Indicator: TA104, Metabolic Activation: RAT, LIVER, S-9, AROCLOR 1254, Method: PREINCUBATION): inactive; negative
- mutagenic call [3]: inactive; negative
- mutagenic call (Test System: AMES SALMONELLA TYPHIMURIUM, Strain/Indicator: TA1535, Metabolic Activation: RAT, LIVER, S-9, AROCLOR 1254, Method: PREINCUBATION): inactive; negative
- mutagenic call [4]: inactive; negative
- mutagenic call (Test System: AMES SALMONELLA TYPHIMURIUM, Strain/Indicator: TA1537, Metabolic Activation: RAT, LIVER, S-9, AROCLOR 1254, Method: PREINCUBATION): inactive; negative
- mutagenic call [5]: inactive; negative
- mutagenic call (Test System: AMES SALMONELLA TYPHIMURIUM, Strain/Indicator: TA1538, Metabolic Activation: RAT, LIVER, S-9, AROCLOR 1254, Method: PREINCUBATION): inactive; negative
- mutagenic call (Test System: CHINESE HAMSTER V-79, Strain/Indicator: V-79/8-AZAGUANINE, Metabolic Activation: NONE): inactive; negative
